In brackets after ≈: the same amount, converted by molar mass.
How the values were obtained:
Assay type in all cases: functional
[1] = test system: Staphylococcus aureus; experiment: Antibacterial activity against Staphylococcus aureus at 25 ug/well after 24 hrs by agar well diffusion method; conditions: read-out: DIZ
[2] = test system: Pseudomonas aeruginosa; experiment: Antibacterial activity against Pseudomonas aeruginosa at 25 ug/well after 24 hrs by agar well diffusion method; conditions: read-out: DIZ
[3] = test system: Bacillus subtilis; experiment: Antibacterial activity against Bacillus subtilis at 12.5 ug/well after 24 hrs by agar well diffusion method; conditions: read-out: DIZ
[4] = test system: Klebsiella pneumoniae; experiment: Antibacterial activity against Klebsiella pneumoniae at 50 ug/well after 24 hrs by agar well diffusion method; conditions: read-out: DIZ
[5] = test system: Aspergillus niger; experiment: Antifungal activity against Aspergillus niger assessed as inhibition of spore germination after 48 hrs by broth dilution method
[6] = test system: Staphylococcus aureus; experiment: Bactericidal activity against Staphylococcus aureus after 24 hrs
[7] = test system: Pseudomonas aeruginosa; experiment: Bactericidal activity against Pseudomonas aeruginosa after 24 hrs
[8] = test system: Staphylococcus aureus; experiment: Antibacterial activity against Staphylococcus aureus at 100 ug/well after 24 hrs by agar well diffusion method; conditions: read-out: DIZ
[9] = test system: Pseudomonas aeruginosa; experiment: Ratio of MBC to MIC for Pseudomonas aeruginosa
[10] = test system: Penicillium chrysogenum; experiment: Fungicidal activity against Penicillium chrysogenum assessed as inhibition of spore germination after 48 hrs
[11] = test system: Aspergillus niger; experiment: Antifungal activity against Aspergillus niger assessed as inhibition of spore germination at 100 ug/well after 48 hrs by agar well diffusion method; conditions: read-out: DIZ
[12] = test system: Bacillus subtilis; experiment: Antibacterial activity against Bacillus subtilis after 24 hrs by broth dilution method
[13] = test system: Bacillus subtilis; experiment: Antibacterial activity against Bacillus subtilis at 50 ug/well after 24 hrs by agar well diffusion method; conditions: read-out: DIZ
[14] = test system: Pseudomonas aeruginosa; experiment: Antibacterial activity against Pseudomonas aeruginosa at 100 ug/well after 24 hrs by agar well diffusion method; conditions: read-out: DIZ
[15] = test system: Aspergillus niger; experiment: Antifungal activity against Aspergillus niger assessed as inhibition of spore germination at 50 ug/well after 48 hrs by agar well diffusion method; conditions: read-out: DIZ
[16] = test system: Staphylococcus aureus; experiment: Antibacterial activity against Staphylococcus aureus after 24 hrs by broth dilution method
[17] = test system: Klebsiella pneumoniae; experiment: Bactericidal activity against Klebsiella pneumoniae after 24 hrs
[18] = test system: Pseudomonas aeruginosa; experiment: Antibacterial activity against Pseudomonas aeruginosa after 24 hrs by broth dilution method
[19] = Antifungal activity against Penicillium chrysogenum assessed as inhibition of spore germination at 100 ug/well after 48 hrs by agar well diffusion method
[20] = test system: Klebsiella pneumoniae; experiment: Antibacterial activity against Klebsiella pneumoniae at 100 ug/well after 24 hrs by agar well diffusion method; conditions: read-out: DIZ
[21] = test system: Klebsiella pneumoniae; experiment: Antibacterial activity against Klebsiella pneumoniae at 25 ug/well after 24 hrs by agar well diffusion method; conditions: read-out: DIZ
[22] = test system: Staphylococcus aureus; experiment: Antibacterial activity against Staphylococcus aureus at 12.5 ug/well after 24 hrs by agar well diffusion method; conditions: read-out: DIZ
[23] = test system: Pseudomonas aeruginosa; experiment: Antibacterial activity against Pseudomonas aeruginosa at 12.5 ug/well after 24 hrs by agar well diffusion method; conditions: read-out: DIZ
[24] = test system: Bacillus subtilis; experiment: Antibacterial activity against Bacillus subtilis at 25 ug/well after 24 hrs by agar well diffusion method; conditions: read-out: DIZ
[25] = test system: Penicillium chrysogenum; experiment: Ratio of MFC to MIC for Penicillium chrysogenum
[26] = test system: Staphylococcus aureus; experiment: Antibacterial activity against Staphylococcus aureus at 50 ug/well after 24 hrs by agar well diffusion method; conditions: read-out: DIZ
[27] = Antifungal activity against Penicillium chrysogenum assessed as inhibition of spore germination at 12.5 ug/well after 48 hrs by agar well diffusion method
[28] = test system: Klebsiella pneumoniae; experiment: Antibacterial activity against Klebsiella pneumoniae at 12.5 ug/well after 24 hrs by agar well diffusion method; conditions: read-out: DIZ
[29] = test system: Bacillus subtilis; experiment: Bactericidal activity against Bacillus subtilis after 24 hrs
[30] = Antifungal activity against Penicillium chrysogenum assessed as inhibition of spore germination after 48 hrs by broth dilution method
[31] = Antifungal activity against Penicillium chrysogenum assessed as inhibition of spore germination at 25 ug/well after 48 hrs by agar well diffusion method
[32] = test system: Klebsiella pneumoniae; experiment: Antibacterial activity against Klebsiella pneumoniae after 24 hrs by broth dilution method
[33] = Antifungal activity against Penicillium chrysogenum assessed as inhibition of spore germination at 50 ug/well after 48 hrs by agar well diffusion method
[34] = test system: Aspergillus niger; experiment: Antifungal activity against Aspergillus niger assessed as inhibition of spore germination at 25 ug/well after 48 hrs by agar well diffusion method; conditions: read-out: DIZ
[35] = test system: Pseudomonas aeruginosa; experiment: Antibacterial activity against Pseudomonas aeruginosa at 50 ug/well after 24 hrs by agar well diffusion method; conditions: read-out: DIZ
[36] = test system: Bacillus subtilis; experiment: Antibacterial activity against Bacillus subtilis at 100 ug/well after 24 hrs by agar well diffusion method; conditions: read-out: DIZ
[37] = test system: Aspergillus niger; experiment: Antifungal activity against Aspergillus niger assessed as inhibition of spore germination at 12.5 ug/well after 48 hrs by agar well diffusion method; conditions: read-out: DIZ
[38] = test system: Aspergillus niger; experiment: Fungicidal activity against Aspergillus niger assessed as inhibition of spore germination after 48 hrs

SMILES | zone of inhibition at 25 µg/disc [1] [mm] | zone of inhibition at 25 µg/disc [2] [mm] | zone of inhibition at 12.5 µg/disc [3] [mm] | zone of inhibition at 50 µg/disc [4] [mm] | zone of inhibition at 100 µg/disc [8] [mm] | zone of inhibition at 100 µg/disc [11] [mm] | zone of inhibition at 50 µg/disc [13] [mm] | zone of inhibition at 100 µg/disc [14] [mm] | zone of inhibition at 50 µg/disc [15] [mm] | inhibition zone (IZ) [19] [mm] | zone of inhibition at 100 µg/disc [20] [mm] | zone of inhibition at 25 µg/disc [21] [mm] | zone of inhibition at 12.5 µg/disc [22] [mm] | zone of inhibition at 12.5 µg/disc [23] [mm] | zone of inhibition at 25 µg/disc [24] [mm] | zone of inhibition at 50 µg/disc [26] [mm] | inhibition zone (IZ) [27] [mm] | zone of inhibition at 12.5 µg/disc [28] [mm] | zone of inhibition at 50 µg/disc [35] [mm] | zone of inhibition at 100 µg/disc [36] [mm] | further results
Nc1nnc(CS(=O)(=O)c2c[nH]cc2-c2ccc(Cl)cc2)s1 | 19 | 22 | 21 | 32 | 23 | 21 | 23 | 26 | 19 | 37 | 34 | 30 | 17 | 20 | 22 | 21 | 29 | 28 | 24 | 25 | MIC [5]: 25 µg/mL (≈ 70.5 µM); MBC [6]: > 200 µg/mL; MBC [7]: 100 µg/mL (≈ 282 µM); Ratio [9]: >2; MFC [10]: > 200 µg/mL; MIC [12]: 50 µg/mL (≈ 141 µM); MIC [16]: 50 µg/mL (≈ 141 µM); MBC [17]: > 100 µg/mL; MIC [18]: 25 µg/mL (≈ 70.5 µM); Ratio [25]: >2; MBC [29]: > 200 µg/mL; MIC [30]: 50 µg/mL (≈ 141 µM); inhibition zone (IZ) [31]: 32 mm; MIC [32]: 25 µg/mL (≈ 70.5 µM); inhibition zone (IZ) [33]: 34 mm; zone of inhibition at 25 µg/disc [34]: 17 mm; zone of inhibition at 12.5 µg/disc [37]: 15 mm; MFC [38]: 100 µg/mL (≈ 282 µM)
Nc1nnc(CS(=O)(=O)/C=C\c2ccc(Cl)cc2)o1 | 14 | 17 | 13 | 20 | 20 | 19 | 15 | 21 | 17 | 20 | 22 | 18 | 12 | 15 | 14 | 16 | 15 | 16 | 19 | 17 | inhibition zone (IZ) [31]: 16 mm; inhibition zone (IZ) [33]: 18 mm; zone of inhibition at 25 µg/disc [34]: 15 mm; zone of inhibition at 12.5 µg/disc [37]: 13 mm
Cc1ccc(-c2c[nH]nc2S(=O)(=O)Cc2nnc(N)s2)cc1 | 17 | 22 | 21 | 26 | 20 | 27 | 23 | 26 | 25 | 34 | 28 | 24 | 16 | 20 | 22 | 18 | 28 | 22 | 24 | 25 | inhibition zone (IZ) [31]: 30 mm; inhibition zone (IZ) [33]: 32 mm; zone of inhibition at 25 µg/disc [34]: 23 mm; zone of inhibition at 12.5 µg/disc [37]: 21 mm
O=C(N[C@H](CO)[C@H](O)c1ccc([N+](=O)[O-])cc1)C(Cl)Cl [CHLORAMPHENICOL] | 32 | 27 | 32 | 42 | 37 |  | 36 | 32 |  |  | 44 | 40 | 30 | 25 | 34 | 35 |  | 38 | 29 | 40 | MIC [12]: 6.25 µg/mL (≈ 19.3 µM); MIC [16]: 6.25 µg/mL (≈ 19.3 µM); MIC [18]: 6.25 µg/mL (≈ 19.3 µM); MIC [32]: 12.5 µg/mL (≈ 38.7 µM)

Reference: ChEMBL document CHEMBL3867433, “Synthesis and antimicrobial activity of styryl/pyrrolyl/pyrazolyl sulfonylmethyl-1,3,4-oxadiazolyl amines and styryl/pyrrolyl/pyrazolyl sulfonylmethyl-1,3,4-thiadiazolyl amines” (2016)
